Test system: LG0567-F671-PDC KRAS tumor spheroid viability
Assay: Anticancer human tumor LG0567-F671-PDC patient-derived lung adenocarcinoma cell line growth inhibition [KRAS2]
Conditions: spheroids with HUVEC and MSC; for IC50: curve of first compound; for viability, T/C: stronger effect = lower value
Method in brief: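 Combination screen of spheroid viability in tumor-cell co-cultures with endothelial (HUVEC) and mesenchymal stem cell stroma. Each agent was tested in half-log dilutions, topping at clinical Cmax or at 10 microM without a known Cmax.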

[1] = second compound 0.1 µM, first compound 0.01 µM
[2] = second compound 0.1 µM, first compound 0.0316 µM
[3] = second compound 0.1 µM, first compound 0.1 µM
[4] = second compound 0.1 µM, first compound 0.316 µM
[5] = second compound 0.1 µM, first compound 1 µM
[6] = second compound 0.1 µM, first compound 3.16 µM
[7] = second compound 0.316 µM, first compound 0.01 µM
[8] = second compound 0.316 µM, first compound 0.0316 µM
[9] = second compound 0.316 µM, first compound 0.1 µM
[10] = second compound 0.316 µM, first compound 0.316 µM
[11] = second compound 0.316 µM, first compound 1 µM
[12] = second compound 0.316 µM, first compound 3.16 µM
[13] = second compound 1 µM, first compound 0.01 µM
[14] = second compound 1 µM, first compound 0.0316 µM
[15] = second compound 1 µM, first compound 0.1 µM
[16] = second compound 1 µM, first compound 0.316 µM
[17] = second compound 1 µM, first compound 1 µM
[18] = second compound 1 µM, first compound 3.16 µM
[19] = second compound 3.16 µM, first compound 0.01 µM
[20] = second compound 3.16 µM, first compound 0.0316 µM
[21] = second compound 3.16 µM, first compound 0.1 µM
[22] = second compound 3.16 µM, first compound 0.316 µM
[23] = second compound 3.16 µM, first compound 1 µM
[24] = second compound 3.16 µM, first compound 3.16 µM
[25] = second compound 10 µM, first compound 0.0316 µM
[26] = second compound 10 µM, first compound 0.1 µM
[27] = second compound 10 µM, first compound 0.316 µM
[28] = second compound 10 µM, first compound 1 µM
[29] = second compound 10 µM, first compound 3.16 µM
[30] = second compound 0.1 µM, first compound 10 µM
[31] = second compound 0.316 µM, first compound 10 µM
[32] = second compound 1 µM, first compound 10 µM
[33] = second compound 3.16 µM, first compound 10 µM
[34] = second compound 10 µM, first compound 10 µM
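Note: drug exposure lasted seven days after spheroids formed for three days.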
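Throughout, for viability, T/C: 100% = DMSO vehicle control viability.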

Row | SMILES | IC50 (second compound 0.1 µM) | IC50 (second compound 0.316 µM) | IC50 (second compound 1 µM) | IC50 (second compound 3.16 µM) | viability, T/C [2] | viability, T/C [3] | viability, T/C [4] | viability, T/C [5] | viability, T/C [6] | viability, T/C [8] | viability, T/C [9] | viability, T/C [10] | viability, T/C [11] | viability, T/C [12] | viability, T/C [14] | viability, T/C [15] | viability, T/C [16] | viability, T/C [17] | viability, T/C [18] | viability, T/C [20] | also measured
1 | CC1COCCN1c1cc(-c2ccnn2C)c2ccnc(-c3ccn[nH]3)c2n1 (stereo not given) + C=CC(=O)N1CCN(c2nc(=O)n(-c3c(C)ccnc3C(C)C)c3nc(-c4c(O)cccc4F)c(F)cc23)C(C)C1 | < 0.01 µM | < 0.01 µM | < 0.01 µM | < 0.01 µM | 18.8% | 16% | 14.2% | 11.2% | 10.8% | 18.6% | 14.2% | 11% | 9.77% | 10.6% | 19.3% | 14.3% | 11.3% | 9.8% | 12.5% | 14.9% | IC50 (second compound 10 µM): < 0.01 µM; viability, T/C [1]: 23.9%; viability, T/C [7]: 21.8%; viability, T/C [13]: 21.3%; viability, T/C [19]: 15.7%; viability, T/C [21]: 12.8%; viability, T/C [22]: 11.3%; viability, T/C [23]: 9.54%; viability, T/C [24]: 10.3%; viability, T/C (second compound 10 µM, first compound 0.01 µM): 19.8%; viability, T/C [25]: 17.4%; viability, T/C [26]: 15.5%; viability, T/C [27]: 14.9%; viability, T/C [28]: 12.2%; viability, T/C [29]: 12.8%
2 | CC1OCC2(CCN(c3cnc(Sc4ccnc(N)c4Cl)c(N)n3)CC2)C1N (stereo not given) + C=CC(=O)N1CCN(c2nc(=O)n(-c3c(C)ccnc3C(C)C)c3nc(-c4c(O)cccc4F)c(F)cc23)C(C)C1 | < 0.0316 µM | < 0.0316 µM | < 0.0316 µM | < 0.0316 µM | 17.5% | 13.5% | 8.87% | 5.62% | 3.47% | 17.9% | 13.2% | 8.99% | 4.26% | 2.66% | 16.2% | 15.9% | 10.2% | 4.27% | 5.62% | 16.6% | IC50 (second compound 10 µM): < 0.0316 µM; viability, T/C [30]: 2.54%; viability, T/C [31]: 2.19%; viability, T/C [32]: 2.9%; viability, T/C [21]: 11.6%; viability, T/C [22]: 7.63%; viability, T/C [23]: 4%; viability, T/C [24]: 1.9%; viability, T/C [33]: 3.71%; viability, T/C [25]: 17.6%; viability, T/C [26]: 13.8%; viability, T/C [27]: 8.61%; viability, T/C [28]: 4.3%; viability, T/C [29]: 3.58%; viability, T/C [34]: 3.08%
3 | CCNC(=O)CC1N=C(c2ccc(Cl)cc2)c2cc(OC)ccc2-n2c(C)nnc21 (stereo not given) + C=CC(=O)N1CCN(c2nc(=O)n(-c3c(C)ccnc3C(C)C)c3nc(-c4c(O)cccc4F)c(F)cc23)C(C)C1 | < 0.0316 µM | < 0.0316 µM | < 0.0316 µM | < 0.0316 µM | 35% | 33% | 24.3% | 18.5% | 15.2% | 28.9% | 34.7% | 25.1% | 18.7% | 15.3% | 32.7% | 31.1% | 22% | 16% | 15.8% | 25.9% | IC50 (second compound 10 µM): < 0.0316 µM; viability, T/C [30]: 12.9%; viability, T/C [31]: 13.2%; viability, T/C [32]: 12.4%; viability, T/C [21]: 30.1%; viability, T/C [22]: 20.9%; viability, T/C [23]: 16.3%; viability, T/C [24]: 12.8%; viability, T/C [33]: 10.2%; viability, T/C [25]: 24.3%; viability, T/C [26]: 26.2%; viability, T/C [27]: 17%; viability, T/C [28]: 10.3%; viability, T/C [29]: 9.13%; viability, T/C [34]: 9.1%
4 | Cn1nccc1Nc1nccc(-c2cc3c(s2)C(C)(C)N(CCN2CCOCC2)C3=O)n1 + C=CC(=O)N1CCN(c2nc(=O)n(-c3c(C)ccnc3C(C)C)c3nc(-c4c(O)cccc4F)c(F)cc23)C(C)C1 | < 0.0316 µM | < 0.0316 µM | < 0.0316 µM | < 0.0316 µM | 21.2% | 23.1% | 19.2% | 20.8% | 14.1% | 22.2% | 19.8% | 19.9% | 17.8% | 15.6% | 23.1% | 21.8% | 21% | 20.9% | 15% | 22.2% | IC50 (second compound 10 µM): < 0.0316 µM; viability, T/C [30]: 16.3%; viability, T/C [31]: 17.2%; viability, T/C [32]: 20.8%; viability, T/C [21]: 18.1%; viability, T/C [22]: 20.3%; viability, T/C [23]: 12.2%; viability, T/C [24]: 14%; viability, T/C [33]: 20.9%; viability, T/C [25]: 20.5%; viability, T/C [26]: 19.2%; viability, T/C [27]: 14.5%; viability, T/C [28]: 12.2%; viability, T/C [29]: 15.2%; viability, T/C [34]: 26.8%
5 | CC(=O)OC12COC1CC(O)C1(C)C(=O)C(O)C3=C(C)C(OC(=O)C(O)C(NC(=O)OC(C)(C)C)c4ccccc4)CC(O)(C(OC(=O)c4ccccc4)C21)C3(C)C (stereo not given) + C=CC(=O)N1CCN(c2nc(OCC3CCCN3C)nc3c2CCN(c2cccc4cccc(C)c24)C3)CC1CC#N | < 0.01 µM | < 0.01 µM | < 0.01 µM | < 0.01 µM | 13.2% | 16.1% | 16.5% | 19.4% | 15.8% | 13.9% | 15.7% | 13.8% | 16.9% | 14.7% | 15.4% | 15.9% | 15.3% | 16.8% | 14.4% | 37.1% | IC50 (second compound 0.0316 µM): < 0.01 µM; viability, T/C (second compound 0.0316 µM, first compound 0.01 µM): 18.9%; viability, T/C (second compound 0.0316 µM, first compound 0.0316 µM): 16.2%; viability, T/C (second compound 0.0316 µM, first compound 0.1 µM): 18.9%; viability, T/C (second compound 0.0316 µM, first compound 0.316 µM): 21.9%; viability, T/C (second compound 0.0316 µM, first compound 1 µM): 22.9%; viability, T/C (second compound 0.0316 µM, first compound 3.16 µM): 19.9%; viability, T/C [1]: 14.5%; viability, T/C [7]: 15.8%; viability, T/C [13]: 16.6%; viability, T/C [19]: 40.1%; viability, T/C [21]: 25.7%; viability, T/C [22]: 36.4%; viability, T/C [23]: 33.6%; viability, T/C [24]: 36.6%

Reference: PubChem BioAssay AID1963856 (Molecular Pharmacology Branch, DTP, NCI, 2024)
